pEC50, pIC50, pKi: −log10 of the molar value. Counter-ions that a name gives are not always drawn. Like-named read-outs stand apart in the source and are kept apart here.
Columns and labels:
α2β4 nAChR = α2β4 nAChR (Rattus norvegicus (Rat), UniProt P12389+P12392); test: [3H]-epibatidine competition binding, α2β4; settings: Table 1; mean of 3 to 5 measurements
Description: (§1) In Vitro Binding Affinities for nAChR Subtypes. […] To determine selectivities of these compounds in binding assays among the three predominant nAChR subtypes, α3β4, α4β2 and α7, the ratios of Ki values (α3β4/α4β2 and α7/α4β2) were determined.
(§2) Cell Lines and Cell Culture. The cell lines expressing defined rat nAChR subtypes were established previously by stably transfecting HEK 293 cells with rat nAChR subunit genes. The cell line expressing human α4β2 nAChRs, YXα4β2H1, was established recently. These cell lines were maintained in minimum essential medium (MEM) supplemented with 10% fetal bovine serum, 100 units/mL penicillin G, […] and selective antibiotics at 37° C. with 5% CO2 in a humidified incubator. Fetal bovine serum was provided by Gemini Bio-Products (Woodland, Calif.). […]
(§3) Briefly, cultured cells at >80% confluence were removed from their flasks (80 cm^2) with a disposable cell scraper and placed in 10 mL of 50 mM Tris.HCl buffer (pH 7.4, 4° C.). […] The filter-retained radioactivity was measured by liquid scintillation counting. […] Data from competition binding assays were analyzed using Prism 5 (GraphPad Software, San Diego, Calif.).
(§4) Pharmacological Properties. We measured the in vitro binding affinities of the ligands for defined receptor subtypes (α2β2, α2β4, α3β2, α3β4, α4β2, α4β4, α6β2, α6β4, and α7) expressed in stably transfected cell lines. […]

α2β2 nAChR = α2β2 nAChR (Rattus norvegicus (Rat), UniProt P12389+P12390); test: [3H]-epibatidine competition binding, α2β2; settings: Table 1; mean of 3 to 5 measurements
Description: as §1, §2, §3, §4

α3β2 nAChR = α3β2 nAChR (Rattus norvegicus (Rat), UniProt P04757+P12390); test: [3H]-epibatidine competition binding, α3β2; settings: Table 1; mean of 3 to 5 measurements
Description: as §1, §2, §3, §4

rat α3β4 nAChRs = rat α3β4 nAChRs (Rattus norvegicus (Rat), UniProt P04757+P12392); test: 86Rb+ efflux assay (activation and desensitization), α3β4; format: cell-based; settings: for Emax: read-out: Emax α3β4 nAChRs
Description: (§5) In Vitro Effects on nAChR Function. […] Their agonist activities were assessed by measuring stimulated ^86Rb^+ efflux from stably transfected cells, either expressing human α4β2 nAChRs or rat α3β4 receptors.
(§6) Cell Lines and Cell Culture. The cell lines expressing defined rat nAChR subtypes were established previously by stably transfecting HEK 293 cells with rat nAChR subunit genes. The cell line expressing human α4β2 nAChRs, YXα4β2H1, was established recently. These cell lines were maintained in minimum essential medium (MEM) supplemented with 10% fetal bovine serum, 100 units/mL penicillin G, […] and selective antibiotics at 37° C. with 5% CO2 in a humidified incubator. Fetal bovine serum was provided by Gemini Bio-Products (Woodland, Calif.). Tissue culture medium and antibiotics were obtained from Invitrogen Corporation (Carlsbad, Calif.), unless otherwise stated.
(§7) ^86Rb^+ Efflux Assay. Functional properties of compounds at nAChRs expressed in the transfected cells were measured using ^86Rb^+ efflux assays as described previously. In brief, cells expressing human α4β2 or rat α3β4 nAChRs were plated into 24-well plates coated with poly-D-lysine. The plated cells were grown at 37° C. for 18 to 24 hour to reach 85-95% confluence. The cells were then incubated in growth medium (0.5 mL/well) containing ^86Rb^+ (2 μCi/mL) for 4 hour at 37° C. The loading mixture was then aspirated, and the cells were washed four times with 1 mL buffer (15 mM HEPES, 140 mM NaCl, 2 mM KCl, 1 mM MgSO4, 1.8 mM CaCl2, 11 mM Glucose, pH 7.4). One mL of buffer with or without compounds to be tested was then added to each well. After incubation for 2 min, the assay buffer was collected for measurements of ^86Rb^+ released from the cells. Cells were then lysed by adding 1 mL of 100 mM NaOH to each well, and the lysate was collected for determination of the amount of ^86Rb^+ that was in the cells at the end of the efflux assay. Radioactivity of assay samples and lysates was measured by liquid scintillation counting. Total loading (cpm) was calculated as the sum of the assay sample and the lysate of each well. The amount of ^86Rb^+ efflux was expressed as a percentage of ^86Rb^+ loaded. […] For obtaining EC50 and Emax values, stimulation curves were constructed in which 8 different concentrations of a ligand were included in the assay. […] EC50, Emax and IC50(10′) values were determined by nonlinear least-squares regression analyses (GraphPad, San Diego, Calif.).
(§8) The functional properties of the ligands were determined by ^86Rb^+ efflux assays in cells expressing α3β4 and α4β2 nAChR subtypes. The functional activity of each ligand was measured for its agonism, antagonism and desensitization ability. Agonist activity for each of the ligands was tested at eight different concentrations. […] The full concentration-effect curves generated potency (EC50) and efficacy (Emax) of each ligand. […] We tested each ligand for antagonist activity at eight concentrations. The potency (IC50(0′)) of each ligand as an antagonist was derived from the full concentration-effect curves.

α3β4 nAChR = α3β4 nAChR (Rattus norvegicus (Rat), UniProt P04757+P12392); test: [3H]-epibatidine competition binding, α3β4
Description: as §1, §6
(§9) Briefly, cultured cells at >80% confluence were removed from their flasks (80 cm^2) with a disposable cell scraper and placed in 10 mL of 50 mM Tris.HCl buffer (pH 7.4, 4° C.). The cell suspension was centrifuged at 10,000×g for 5 min and the pellet was collected. The cell pellet was then homogenized in 10 mL buffer with a polytron homogenizer and centrifuged at 36,000 g for 10 min at 4° C. The membrane pellet was resuspended in fresh buffer, and aliquots of the membrane preparation were used for binding assays. […] Bound and free ligands were separated by vacuum filtration through Whatman GF/C filters treated with 0.5% polyethylenimine. The filter-retained radioactivity was measured by liquid scintillation counting. Specific binding was defined as the difference between total binding and nonspecific binding. Data from competition binding assays were analyzed using Prism 5 (GraphPad Software, San Diego, Calif.).
(§10) Pharmacological Properties. We measured the in vitro binding affinities of the ligands for defined receptor subtypes (α2β2, α2β4, α3β2, α3β4, α4β2, α4β4, α6β2, α6β4, and α7) expressed in stably transfected cell lines. […] Rat forebrain homogenates were included to allow comparison between the heterologous and native α4β2 and α7 nAChRs. See Table 1 for binding affinity values (Ki) of the ligands at the three major nAChR subtypes (α3β4. α4β2 and α7).

α4β4 nAChR = α4β4 nAChR (Rattus norvegicus (Rat), UniProt P09483+P12392); test: [3H]-epibatidine competition binding, α4β4; settings: Table 1; mean of 3 to 5 measurements
Description: as §1, §2, §3, §4

α7 nAChR = α7 nAChR (Rattus norvegicus (Rat), UniProt Q05941); format: binding
Description: as §1, §6, §9, §10

human α4β2 nAChRs = human α4β2 nAChRs (Homo sapiens (Human), UniProt P17787+P43681); test: 86Rb+ efflux assay (activation and desensitization), α4β2; format: cell-based; settings: for pIC50: desensitization; for pEC50: agonist activity; for Emax: read-out: Emax α4β2 nAChRs
Description: as §5, §6, §7, §8

α4β2 nAChR = α4β2 nAChR (Rattus norvegicus (Rat), UniProt P09483+P12390); test: biochemical; format: binding; settings: for Ki Ratio α3β4/α4β2: selectivity for α4β2 over α3β4; for Ki Ratio α7/α4β2: selectivity for α4β2 over α7
Description: as §1, §6, §9, §10

ferrets = test: Emesis studies in ferrets; format: in vivo, ferret (Mustela putorius furo); settings: 0.5 mg/kg s.c.
Description: Emetic Effects of Compound (S)-15 (YL-1-127) in Ferrets. Effects of (S)-15 in causing nausea and emesis were assessed in a ferret model. For comparison, varenicline was also tested. […] In general, all animals remained alert and active with periods of inactivity that mirrored their baseline behavior within the 1 hr observation period.
In one animal, this behavior was accompanied by oral stereotypy (licking), whereas in two animals it was interspersed by episodes of backward walking. On the average, these behaviors manifested around ˜2.20 min. […] Occasionally, when animals tried to ambulate they would immediately cease their movement after each attempt. This would be followed by a momentary increase in breathing, giving the impression that the animal was in distress.
General Procedures for Emesis Studies in Ferrets. Studies were undertaken in male ferrets (Mustela putorius furo) weighing 0.9-1.5 kg (Marshall Farms, N.Y.). They were housed in controlled conditions of room temperature (22° C.) and light (12:12 h light-dark cycle) with free access to food and water. Prior to each experiment, food was withheld overnight, whereas water was provided ad libitum.
Emetic testing consisted of placing animals individually in a polycarbonate enclosure. Following a 30 min acclimation period, each animal randomly received a subcutaneus injection of varencline or compound (S)-15 (YL-1-127) in the subscapular region. A 60 min observation and video recording followed the drug administration. […] All drugs were dissolved in sterile saline.
Video analysis of the incidence of emesis, stereotypical behaviors (such as licking, mouth-clawing, backward walking, gagging, and burying of the head in cage) and GI side effects (diarrhea) was done off-line. Stereotypical behaviors are thought to be reflective of a subjective sensation of nausea. The emetic index of a drug was calculated as the […] of animals displaying emesis (one or more times in 60 min) divided by the total number of animals tested. An emetic episode was defined as the forceful oral expulsion of liquid or solid upper gastrointestinal contents that is temporally separated from another by at least 30 s.
The Nausea Index for the stereotypical behaviors was derived from the mean±SEM number of nausea behaviors observed among all animals in a given treatment group. Significance was determined at p<0.05.

[1] = read-out: IC50(10′) α3β4 nAChRs
[2] = Table 1, mean of 3 to 5 measurements
[3] = agonist efficacy normalized to Emax of nicotine, ND = no significant stimulated efflux detected
[4] = 10 min pre-treatment, Table 3 (Example 4), read-out: IC50(10′) α4β2
[5] = 10 min pre-incubation before 100 μM nicotine, Table 2, read-out: IC50(10′) α4β2 nAChRs
[6] = Table 1, mean of 3 to 5 measurements, read-out: Ki α4β2
[7] = ND = no significant stimulated efflux detected
[8] = Table 3 (Example 4), read-out: Ki α4β2

SMILES	pIC50 (rat α3β4 nAChRs; read-out: IC50(10′) α3β4)	pIC50 (rat α3β4 nAChRs; [1])	pKi (α3β4 nAChR; [2])	pKi (α3β4 nAChR; Table 3 (Example 4))	pKi (α7 nAChR; [2])	pKi (α7 nAChR; Table 3 (Example 4))	pIC50 (human α4β2 nAChRs; [4])	pIC50 (human α4β2 nAChRs; [5])	pKi (α4β2 nAChR; [6])	Ki Ratio α3β4/α4β2 (α4β2 nAChR)	Ki Ratio α7/α4β2 (α4β2 nAChR)	pEC50 (human α4β2 nAChRs; [7])	Emax (human α4β2 nAChRs; [3]) [%]	pKi (α4β2 nAChR; [8])	also measured
Cc1ncc(C#CCCCCF)cc1OC[C@@H]1CCN1 [(S)-22, (S)-3-(azetidin-2-ylmethoxy)-5-(6-fluorohex-1-ynyl)-2-methylpyridine]	4.89	< 5.00	3.82	3.89	3.82	3.82	6.85	6.89	–	–	–	–	–	–	pKi (α2β4 nAChR): 4.62; pKi (α2β2 nAChR): 8.06; pKi (α3β2 nAChR): 6.64; pKi (α4β4 nAChR): 5.52; Emax α4β2 nAChRs (human α4β2 nAChRs; [3]): didn't show detectable agonist activity
Cc1ncc(C#CCCCCO)cc1OC[C@@H]1CCN1 [(S)-17, (S)-6-(5-(azetidin-2-ylmethoxy)-6-methylpyridin-3-yl)hex-5-yn-1-ol]	4.30	< 5.00	–	3.60	–	3.77	7.38	7.29	8.37	70,000	40,000	7.20	< 20	–	reduction in binding affinity for α4β2 nAChRs (α4β2 nAChR; relative to Sazetidine-A): 70 fold
CN1CCC[C@H]1c1cccnc1 [(—)-Nicotine, (−)-nicotine, reference compound]	–	–	–	–	–	–	–	–	–	–	–	–	–	–	Emax α3β4 nAChRs (rat α3β4 nAChRs): full agonist activities; Emax (human α4β2 nAChRs): 100%
CCCCC#Cc1cnc(C)c(OC[C@H]2CCCN2)c1 [(R)-16, (R)-5-(hex-1-ynyl)-2-methyl-3-(pyrrolidin-2-ylmethoxy) pyridine]	–	–	–	4.66	3.96	–	–	–	–	22	11	–	–	5.00	–
c1cnc2cc3c(cc2n1)[C@@H]1CNC[C@H]3C1 [Varenicline]	–	–	–	–	–	–	–	–	–	–	–	–	–	–	gagging (retching), mean # of episodes (ferrets): 2.80 ± 1.63; time post-injection at which locomotor behavior was noticeably reduced (ferrets): ~1.05 min; emetic episodes (ferrets; 1 hr observation): no emetic episodes were observed; time at which nausea behaviors manifested (ferrets; average): ~2.20 min; animals with drug induced nausea (gagging) (ferrets; animals affected/tested): 4/5; Emax (rat α3β4 nAChRs): 90%
OCCCCC#Cc1cncc(OC[C@@H]2CCN2)c1 [Sazetidine-A, reference compound]	–	< 5.00	–	5.72	–	5.80	8.12	7.92	–	31,000	11,000	7.62	40	10.21	pEC50 (rat α3β4 nAChRs; agonist activity, ND = no significant stimulated efflux detected): 4.62; pIC50 (rat α3β4 nAChRs; desensitization, 10 min pre-treatment, Table 3 (Example 4), read-out: IC50(10′) α3β4): < 5.00; Emax (rat α3β4 nAChRs): 17%
CCCCC#Cc1cnc(C)c(OC[C@@H]2CCCN2)c1 [(S)-16, (S)-5-(hex-1-ynyl)-2-methyl-3-(pyrrolidin-2-ylmethoxy)pyridine]	–	5.19	–	4.03	–	4.09	–	5.80	–	–	–	–	–	7.14	Emax α4β2 nAChRs (human α4β2 nAChRs; [3]): didn't show detectable agonist activity
CCCCC#Cc1cnc(C)c(OC[C@H]2CCN2)c1 [(R)-15, (R)-3-(azetidin-2-ylmethoxy)-5-(hex-1-ynyl)-2-methylpyridine]	–	–	3.70	–	3.80	3.92	–	–	6.13	270	220	–	–	–	–
CCCCC#Cc1cnc(C(F)(F)F)c(OC[C@@H]2CCN2)c1 [compound 32, (S)-3-(azetidin-2-ylmethoxy)-5-(hex-1-ynyl)-2-(trifluoromethyl)pyridine hydrochloride]	–	–	< 4.00	–	–	–	–	–	–	–	–	–	–	–	pKi (α4β2 nAChR): < 4.00
Cc1ncc(C#CC2CC2)cc1OC[C@@H]1CCN1 [(S)-27, (S)-3-(azetidin-2-ylmethoxy)-5-(cyclopropylethynyl)-2-methylpyridine]	4.44	< 5.00	3.82	3.82	–	3.82	7.96	6.96	8.02	16,000	16,000	6.80	< 20	–	–
